Measured values as given in ChEMBL document CHEMBL1201862, “PubChem BioAssay data set” (2004).
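How tested: cells in 96-well plates exposed to compound for 48 hours at five concentrations. GI50 marks 50% less growth.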 Activity calls are given as the source filed them. Cut-off read from the data, not from the text of the source: active = GI50 up to about 1.1 µM and inactive = higher.

Assays:
Assay in all cases: growth of human tumour cells (NCI), 48 h
CAKI-1 = test system: CAKI-1
COLO 205 = test system: COLO 205
DU-145 = test system: DU-145
HCC 2998 = test system: HCC 2998
HCT-15 = test system: HCT-15
HT-29 = test system: HT-29
LOX IMVI = test system: LOX IMVI
MCF7 = test system: MCF7
MOLT-4 = test system: MOLT-4
NCI/ADR-RES = test system: NCI/ADR-RES
OVCAR-5 = test system: OVCAR-5
RPMI-8226 = test system: RPMI-8226
SF-539 = test system: SF-539
SK-MEL-28 = test system: SK-MEL-28
SN12C = test system: SN12C
T47D = test system: T47D
UACC-257 = test system: UACC-257
UO-31 = test system: UO-31
OVCAR-4 = test system: OVCAR-4
SK-MEL-2 = test system: SK-MEL-2

COC1=C2C[C@](OC)(C#CC=CC#CC2O)CC1(C)C (some centres not stated)
GI50 (CAKI-1): > 100 µM (inactive)
GI50 (COLO 205): > 100 µM (inactive)
GI50 (DU-145): > 100 µM (inactive)
GI50 (HCC 2998): 37.3 µM (inactive)
GI50 (HCT-15): > 100 µM
GI50 (HT-29): > 100 µM (inactive)
GI50 (LOX IMVI): > 100 µM (inactive)
GI50 (MCF7): > 100 µM (inactive)
GI50 (MOLT-4): 49 µM (inactive)
GI50 (NCI/ADR-RES): > 100 µM (inactive)
GI50 (OVCAR-5): > 100 µM (inactive)
GI50 (RPMI-8226): 95.5 µM (inactive)
GI50 (SF-539): > 100 µM (inactive)
GI50 (SK-MEL-28): > 100 µM (inactive)
GI50 (SN12C): > 100 µM (inactive)
GI50 (T47D): > 100 µM (inactive)
GI50 (UACC-257): > 100 µM (inactive)
GI50 (UO-31): 28.6 µM (inactive)

COc1ccc2[nH]c3c(c2c1)CC(=O)N1CCCC(CC3O)C1 (configuration not stated)
GI50 (CAKI-1): > 100 µM (inactive)
GI50 (COLO 205): > 100 µM (inactive)
GI50 (DU-145): > 100 µM (inactive)
GI50 (HCC 2998): > 100 µM (inactive)
GI50 (HCT-15): > 100 µM
GI50 (HT-29): > 100 µM (inactive)
GI50 (LOX IMVI): > 100 µM (inactive)
GI50 (MCF7): > 100 µM (inactive)
GI50 (NCI/ADR-RES): > 100 µM (inactive)
GI50 (OVCAR-4): > 100 µM (inactive)
GI50 (RPMI-8226): > 100 µM (inactive)
GI50 (SF-539): > 100 µM (inactive)
GI50 (SK-MEL-28): > 100 µM (inactive)
GI50 (SK-MEL-2): > 100 µM (inactive)
GI50 (SN12C): > 100 µM (inactive)
GI50 (T47D): > 100 µM (inactive)
GI50 (UACC-257): > 100 µM (inactive)
GI50 (UO-31): > 100 µM (inactive)

C[C@@H]1C(=O)O[C@@H]2C[C@@]1(C)[C@@H]1C(=O)C3(O)OC14C2(C)OC(=O)[C@@]4(O)CCC1C3C(O)C=C2CC=CC(=O)[C@@]21C (some centres not stated)
GI50 (CAKI-1): 21.3 µM (inactive)
GI50 (COLO 205): 34 µM (inactive)
GI50 (DU-145): 30.3 µM (inactive)
GI50 (HCC 2998): 39.1 µM (inactive)
GI50 (HCT-15): 34.4 µM
GI50 (HT-29): 34 µM (inactive)
GI50 (MCF7): 36.3 µM (inactive)
GI50 (MOLT-4): 20.7 µM (inactive)
GI50 (NCI/ADR-RES): > 100 µM (inactive)
GI50 (OVCAR-4): 27.8 µM (inactive)
GI50 (OVCAR-5): 25.5 µM (inactive)
GI50 (RPMI-8226): 19.7 µM (inactive)
GI50 (SF-539): 25.3 µM (inactive)
GI50 (SK-MEL-28): 22.2 µM (inactive)
GI50 (SK-MEL-2): 17.9 µM (inactive)
GI50 (SN12C): 41.2 µM (inactive)
GI50 (T47D): 31.3 µM (inactive)
GI50 (UACC-257): 31 µM (inactive)
GI50 (UO-31): 22.5 µM (inactive)

N#CCN1CCCCCc2ccccc21
GI50 (COLO 205): > 100 µM (inactive)
GI50 (DU-145): > 100 µM (inactive)
GI50 (HCC 2998): > 100 µM (inactive)
GI50 (HCT-15): > 100 µM
GI50 (HT-29): > 100 µM (inactive)
GI50 (MCF7): > 100 µM (inactive)
GI50 (MOLT-4): > 100 µM (inactive)
GI50 (NCI/ADR-RES): > 100 µM (inactive)
GI50 (OVCAR-4): > 100 µM (inactive)
GI50 (OVCAR-5): > 100 µM (inactive)
GI50 (RPMI-8226): > 100 µM (inactive)
GI50 (SF-539): > 100 µM (inactive)
GI50 (SK-MEL-28): > 100 µM (inactive)
GI50 (SN12C): > 100 µM (inactive)
GI50 (T47D): > 100 µM (inactive)
GI50 (UACC-257): > 100 µM (inactive)
GI50 (UO-31): > 100 µM (inactive)

O=S(=O)(c1ccc(Cl)cc1)c1ccccc1C1=NCCN1
GI50 (CAKI-1): > 100 µM (inactive)
GI50 (COLO 205): > 100 µM (inactive)
GI50 (DU-145): > 100 µM (inactive)
GI50 (HCC 2998): > 100 µM (inactive)
GI50 (HCT-15): > 100 µM
GI50 (HT-29): > 100 µM (inactive)
GI50 (MCF7): > 100 µM (inactive)
GI50 (MOLT-4): > 100 µM (inactive)
GI50 (NCI/ADR-RES): > 100 µM (inactive)
GI50 (OVCAR-4): > 100 µM (inactive)
GI50 (OVCAR-5): > 100 µM (inactive)
GI50 (RPMI-8226): > 100 µM (inactive)
GI50 (SK-MEL-28): > 100 µM (inactive)
GI50 (SK-MEL-2): > 100 µM (inactive)
GI50 (SN12C): > 100 µM (inactive)
GI50 (T47D): > 100 µM (inactive)
GI50 (UACC-257): > 100 µM (inactive)
GI50 (UO-31): > 100 µM (inactive)

O=C1CCCCC/C1=C\c1cccc([N+](=O)[O-])c1
GI50 (CAKI-1): 36.1 µM (inactive)
GI50 (COLO 205): 51.1 µM (inactive)
GI50 (DU-145): 48.2 µM (inactive)
GI50 (HCC 2998): 21.2 µM (inactive)
GI50 (HT-29): 37.2 µM (inactive)
GI50 (MCF7): 48.3 µM (inactive)
GI50 (MOLT-4): 15.5 µM (inactive)
GI50 (NCI/ADR-RES): 34.1 µM (inactive)
GI50 (OVCAR-5): 46.2 µM (inactive)
GI50 (RPMI-8226): 21.6 µM (inactive)
GI50 (SF-539): 21.5 µM (inactive)
GI50 (SK-MEL-28): 38.1 µM (inactive)
GI50 (SK-MEL-2): 29.6 µM (inactive)
GI50 (SN12C): 45.7 µM (inactive)
GI50 (T47D): 36 µM (inactive)
GI50 (UACC-257): 22.4 µM (inactive)
GI50 (UO-31): 27.7 µM (inactive)

COc1ccc([C@]23CCN4COC[C@@H]([C@H]42)C2(CC3)OCC(C)(C)CO2)cc1OC
GI50 (CAKI-1): > 100 µM (inactive)
GI50 (COLO 205): > 100 µM (inactive)
GI50 (DU-145): > 100 µM (inactive)
GI50 (HCC 2998): > 100 µM (inactive)
GI50 (HCT-15): > 100 µM
GI50 (HT-29): 89.7 µM (inactive)
GI50 (LOX IMVI): > 100 µM (inactive)
GI50 (MCF7): > 100 µM (inactive)
GI50 (MOLT-4): > 100 µM (inactive)
GI50 (NCI/ADR-RES): > 100 µM (inactive)
GI50 (OVCAR-4): > 100 µM (inactive)
GI50 (OVCAR-5): > 100 µM (inactive)
GI50 (RPMI-8226): > 100 µM (inactive)
GI50 (SK-MEL-28): > 100 µM (inactive)
GI50 (SK-MEL-2): > 100 µM (inactive)
GI50 (SN12C): > 100 µM (inactive)
GI50 (T47D): 66.5 µM (inactive)
GI50 (UACC-257): > 100 µM (inactive)
GI50 (UO-31): > 100 µM (inactive)

O=C1N=C2SC(=S)N=C(S)N2NC12c1ccccc1-c1ccccc12
GI50 (CAKI-1): > 10 µM (inactive)
GI50 (COLO 205): > 10 µM (inactive)
GI50 (DU-145): > 10 µM (inactive)
GI50 (HCC 2998): > 10 µM (inactive)
GI50 (HCT-15): > 10 µM
GI50 (HT-29): 7.01 µM (inactive)
GI50 (LOX IMVI): > 10 µM (inactive)
GI50 (MCF7): 6.81 µM (inactive)
GI50 (MOLT-4): > 10 µM (inactive)
GI50 (NCI/ADR-RES): 3.61 µM (inactive)
GI50 (OVCAR-4): 5.13 µM (inactive)
GI50 (RPMI-8226): 7.57 µM (inactive)
GI50 (SF-539): > 10 µM (inactive)
GI50 (SN12C): > 10 µM (inactive)
GI50 (T47D): 1.38 µM (inactive)
GI50 (UACC-257): 5.68 µM (inactive)
GI50 (UO-31): 6.28 µM (inactive)

CC(C)=CCNc1nc(Cl)nc2[nH]cnc12
GI50 (CAKI-1): > 100 µM (inactive)
GI50 (COLO 205): > 100 µM (inactive)
GI50 (DU-145): > 100 µM (inactive)
GI50 (HCC 2998): > 100 µM (inactive)
GI50 (HT-29): > 100 µM (inactive)
GI50 (LOX IMVI): > 100 µM (inactive)
GI50 (MCF7): 29.6 µM (inactive)
GI50 (MOLT-4): 84.9 µM (inactive)
GI50 (NCI/ADR-RES): 35.7 µM (inactive)
GI50 (OVCAR-4): 54.1 µM (inactive)
GI50 (OVCAR-5): > 100 µM (inactive)
GI50 (RPMI-8226): > 100 µM (inactive)
GI50 (SF-539): > 100 µM (inactive)
GI50 (SK-MEL-28): > 100 µM (inactive)
GI50 (SN12C): 57.7 µM (inactive)
GI50 (T47D): 92 µM (inactive)
GI50 (UACC-257): 27.1 µM (inactive)
GI50 (UO-31): 37.4 µM (inactive)

c1ccc2sc(C3(N4CCC5(CC4)OCCO5)CCCCC3)cc2c1
GI50 (CAKI-1): > 100 µM (inactive)
GI50 (COLO 205): 48 µM (inactive)
GI50 (DU-145): > 100 µM (inactive)
GI50 (HCC 2998): 27.7 µM (inactive)
GI50 (HCT-15): > 100 µM
GI50 (HT-29): 21.1 µM (inactive)
GI50 (LOX IMVI): > 100 µM (inactive)
GI50 (MCF7): 29.4 µM (inactive)
GI50 (MOLT-4): 29.2 µM (inactive)
GI50 (NCI/ADR-RES): > 100 µM (inactive)
GI50 (OVCAR-4): > 100 µM (inactive)
GI50 (OVCAR-5): 55.5 µM (inactive)
GI50 (RPMI-8226): 29.4 µM (inactive)
GI50 (SF-539): > 100 µM (inactive)
GI50 (SK-MEL-28): > 100 µM (inactive)
GI50 (SN12C): 88.3 µM (inactive)
GI50 (T47D): > 100 µM (inactive)
GI50 (UACC-257): 60.1 µM (inactive)
GI50 (UO-31): > 100 µM (inactive)

CC(=O)Oc1ccc2c(c1)O/C(=C\c1ccc(N(C)C)cc1)C2=O
GI50 (CAKI-1): > 100 µM (inactive)
GI50 (COLO 205): > 100 µM (inactive)
GI50 (DU-145): > 100 µM (inactive)
GI50 (HCC 2998): > 100 µM (inactive)
GI50 (HCT-15): 67 µM
GI50 (HT-29): > 100 µM (inactive)
GI50 (MCF7): > 100 µM (inactive)
GI50 (MOLT-4): 47.1 µM (inactive)
GI50 (NCI/ADR-RES): 29.6 µM (inactive)
GI50 (OVCAR-4): 75.2 µM (inactive)
GI50 (RPMI-8226): 54.6 µM (inactive)
GI50 (SF-539): 26.4 µM (inactive)
GI50 (SK-MEL-28): > 100 µM (inactive)
GI50 (SN12C): 62.7 µM (inactive)
GI50 (T47D): > 100 µM (inactive)
GI50 (UACC-257): > 100 µM (inactive)
GI50 (UO-31): 26.3 µM (inactive)
